According to US8309586B2, “Glucokinase activators and pharmaceutical compositions containing the same as an active ingredient” (LG Life Sciences Ltd., priority 2007, dated 2012):

Tested on: Glucokinase known as hexokinase IV (human GK isoform 1, pancreas form and human GK isoform 2, liver form)
Experiment: Glucokinase enzymatic activity assay (G6PDH-coupled, NADH absorbance at 340 nm)
Assay type: biochemical
Details: 5 mM glucose, 1 mM ATP, 37 nM GK, 10 min at room temperature
Outline: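 His-tagged human GK isoform 1 (pancreas) or 2 (liver), E. coli-expressed and Ni-purified, 37 nM, with 5 mM glucose, 1 mM ATP, 1 mM NAD and G6PDH in 25 mM Hepes/KCl, 2 mM MgCl2, 1 mM DTT. Ran 10 min at room temperature, read as NADH at 340 nm. AC1.5 is the compound concentration giving 1.5-fold activity.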

AC1.5 (the compound concentration at which the enzymatic activity is increased by 1.5 times) [nM] | Structure (SMILES)
14 | CN1CCN(C(=O)CC[C@@H]2CSC(c3cc4cc(Cl)cc(NC5CCCC5)c4[nH]3)=N2)CC1 [Example 154, 3-[(R)-2-(5-chloro-7-cyclopentylamino-1H-indol-2-yl)-4,5-dihydro-thiazol-4-yl]-1-(4-methyl-piperazin-1-yl)-propan-1-one]
14 | O=C1CN(CC[C@@H]2CSC(c3cc4cc(F)cc(NC5CCCC5)c4[nH]3)=N2)CCN1 [Example 130, 4-{2-[(R)-2-(7-cyclopentylamino-5-fluoro-1H-indol-2-yl)-4,5-dihydro-thiazol-4-yl]-ethyl}-piperazin-2-one]
6 | OCC[C@@H]1CSC(c2cc3cc(F)cc(NC4CCCC4)c3[nH]2)=N1 [Example 39, 2-[(R)-2-(7-cyclopentylamino-5-fluoro-1H-indol-2-yl)-4,5-dihydro-thiazol-4-yl]-ethanol]
31 | CS(=O)(=O)Cc1cc(NC2CCCC2)c2[nH]c(C3=N[C@H](CCN4CCOCC4)CS3)cc2c1 [Example 71, cyclopentyl-{5-methanesulfonylmethyl-2-[(R)-4-(2-morpholin-4-yl-ethyl)-4,5-dihydro-thiazol-2-yl]-1H-indol-7-yl}-amine]
10 | O=C(CO)N1CCN(CC[C@@H]2CSC(c3cc4cc(F)cc(NC5CCCC5)c4[nH]3)=N2)CC1 [Example 131, 1-(4-{2-[(R)-2-(7-cyclopentylamino-5-fluoro-1H-indol-2-yl)-4,5-dihydro-thiazol-4-yl]-ethyl}-piperazin-1-yl)-2-hydroxy-ethanone]
12 | CC(=O)N1CCN(CCC[C@@H]2CSC(c3cc4cc(Cl)cc(NC5CCCC5)c4[nH]3)=N2)CC1 [Example 155, 1-(4-{3-[(R)-2-(5-chloro-7-cyclopentylamino-1H-indol-2-yl)-4,5-dihydro-thiazol-4-yl]-propyl}-piperazin-1-yl)-ethanone]
13 | CS(=O)(=O)CC[C@@H]1CSC(c2cc3cc(F)cc(NC4CCCC4)c3[nH]2)=N1 [Example 132, cyclopentyl-{5-fluoro-2-[(R)-4-(2-methanesulfonyl-ethyl)-4,5-dihydro-thiazol-2-yl]-1H-indol-7-yl}-amine]
5 | O=C(O)CC[C@@H]1CSC(c2cc3cc(Br)cc(NC4CCCC4)c3[nH]2)=N1 [Example 163, 3-[(R)-2-(5-bromo-7-cyclopentylamino-1H-indol-2-yl)-4,5-dihydro-thiazol-4-yl]-propionic acid]
7 | O=C1CN(CC[C@@H]2CSC(c3cc4cc(Cl)cc(NC5CCCC5)c4[nH]3)=N2)CCN1 [Example 102]
12 | CCOC(=O)CC[C@@H]1CSC(c2cc3cc(Cl)cc(NC4CCCC4)c3[nH]2)=N1 [Example 148, 3-[(R)-2-(5-chloro-7-cyclopentylamino-1H-indol-2-yl)-4,5-dihydro-thiazol-4-yl]propionic acid ethyl ester]
9 | O=C(O)CC[C@@H]1CSC(c2cc3cc(OC(F)(F)F)cc(NC4CCCC4)c3[nH]2)=N1 [Example 169, 3-[(R)-2-(7-cyclopentylamino-5-trifluoromethoxy-1H-indol-2-yl)-4,5-dihydro-thiazol-4-yl]-propionic acid]
32 | CS(=O)(=O)Cc1cc(NC2CCCC2)c2[nH]c(C3=N[C@H](CCO)CS3)cc2c1 [Example 70, 2-[(R)-2-(7-cyclopentylamino-5-methanesulfonylmethyl-1H-indol-2-yl)-4,5-dihydro-thiazol-4-yl]-ethanol]

More lines, now with the values behind:

Structure (SMILES) | AC1.5 (the compound concentration at which the enzymatic activity is increased by 1.5 times) [nM]
O=C1CN(CC[C@@H]2CSC(c3cc4cc(F)cc(NC5CCOCC5)c4[nH]3)=N2)CCN1 [Example 139, 4-(2-{(R)-2-[5-fluoro-7-(tetrahydro-pyran-4-ylamino)-1H-indol-2-yl]-4,5-dihydro-thiazol-4-yl}-ethyl)-piperazin-2-one] | 38
COC(=O)C[C@@H]1CSC(c2cc3cc(COc4ccccc4)cc(NC4CCCC4)c3[nH]2)=N1 [Example 65, [(R)-2-(7-cyclopentylamino-5-phenoxymethyl-1H-indol-2-yl)-4,5-dihydro-thiazol-4-yl]-acetic acid methyl ester] | 23
CN(C)CC[C@@H]1CSC(c2cc3cccc(Oc4ccccc4)c3[nH]2)=N1 [Example 178, dimethyl-{2-[(R)-2-(7-phenoxy-1H-indol-2-yl)-4,5-dihydro-thiazol-4-yl]ethyl}-amine] | 21
CCOC(=O)c1c(C)ncn1CC[C@@H]1CSC(c2cc3cc(Cl)cc(NC4CCCC4)c3[nH]2)=N1 [Example 109, 3-{2-[(R)-2-(5-chloro-7-cyclopentylamino-1H-indol-2-yl)-4,5-dihydro-thiazol-4-yl]-ethyl}-5-methyl-3H-imidazole-4-carboxylic acid ethyl ester] | 26
OC[C@@H]1CSC(c2cc3cc(Br)cc(NC4CCOCC4)c3[nH]2)=N1 [Example 11, {(R)-2-[5-bromo-7-(tetrahydro-pyran-4-ylamino)-1H-indol-2-yl]-4,5-dihydro-thiazol-4-yl}-methanol] | 14
O=C(C[C@@H]1CSC(c2cc3cc(Cl)cc(NC4CCCC4)c3[nH]2)=N1)N1CCCCC1 [Example 81, 2-[(R)-2-(5-chloro-7-cyclopentylamino-1H-indol-2-yl)-4,5-dihydro-thiazol-4-yl]-1-piperidin-1-yl-ethanone] | 6
CS(=O)(=O)N1CCC(Nc2cccc3cc(C4=N[C@H](CO)CS4)[nH]c23)C1 (stereo partly drawn) [Example 4, {(R)-2-[7-(1-methanesulfonyl-pyrrolidin-3-ylamino)-1H-indol-2-yl]-4,5-dihydro-thiazol-4-yl}-methanol] | 217
c1cc(NC2CCCC2)c2[nH]c(C3=N[C@H](CN4CCOCC4)CS3)cc2c1 [Example 16, cyclopentyl-[2-((R)-4-morpholin-4-ylmethyl-4,5-dihydro-thiazol-2-yl)-1H-indol-7-yl]-amine] | 64
O=C(O)CC[C@@H]1CSC(c2cc3cc(Cl)cc(NC4CCOCC4)c3[nH]2)=N1 [Example 151, 3-{(R)-2-[5-chloro-7-(tetrahydro-pyran-4-ylamino)-1H-indol-2-yl]-4,5-dihydro-thiazol-4-yl}-propionic acid] | 14
OCC[C@@H]1CSC(c2cc3cccc(NC4CCOCC4)c3[nH]2)=N1 [Example 46, 2-{(R)-2-[7-(tetrahydro-pyran-4-ylamino)-1H-indol-2-yl]-4,5-dihydro-thiazol-4-yl}-ethanol] | 96
